Read-outs that look alike come from different tables or passages of the source.
Assays:
primary human T-cells [1] = assay: Proliferation assay after 5 days (CellTiter-Glo, CD3 stimulation; PBS counter screen); type: cell-based; settings: CD3 stimulation; for Emax: read-out: Emax proliferation (% activation); for EC50: primary human T-cells, CellTiter-Glo after 5 days, EC50 of fitted sigmoidal curve, read-out: Tcell Proliferation CD3 EC50
Method in brief: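 Luminescent ATP detection (CellTiter-Glo 2.0) quantified cell number 5 days after compounds went onto medium-only plates. Wells showing visible toxicity or precipitate were noted beforehand, and compounds that stimulated unstimulated cells or lowered viability were flagged.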

MV-3 cells = assay: T-cell - TCB - MV3 killing assay (MCSP-TCB, RFP object count by Incucyte); type: cell-based, human
primary human T-cells [2] = system: primary human T-cells
[3] = Homo sapiens, T-cell, 120 h, 5 days, normalized to reference compound A1 as stimulator control = 100%, DMSO neutral control
[4] = Homo sapiens, MV-3, 120 h, normalized: MCSP-TCB only = neutral control, 20 μM reference compound A1 = 100%; 5 d; read-out: MSCP TCB killing MV-3 cells 5 d Emax
[5] = Homo sapiens, MV-3, 120 h, primary human T-cells + MCSP-TCB, MV-3 RFP cells, 5 d; read-out: MSCP TCB killing MV-3 cells 5 d EC50
[6] = primary human T-cells + MCSP-TCB, MV-3 RFP cells, 5 d; read-out: MSCP TCB killing MV-3 cells 5 d EC50

EC50 (primary human T-cells [2]) [nM] | SMILES | Emax (primary human T-cells [1]; [3]) [%] | EC50 (primary human T-cells [1]; Homo sapiens, T-cell, 120 h) [nM] | Emax (MV-3 cells; [4]) [%] | EC50 (MV-3 cells; [5]) [nM] | EC50 (MV-3 cells; [6]) [nM] | EC50 (primary human T-cells [1]) [nM] | MSCP TCB killing MV-3 cells 5 d Emax (MV-3 cells; normalized: MCSP-TCB only = neutral control, 20 μM reference compound A1 = 100%; 5 d) [%] | EC50 (primary human T-cells [1]; T-cell, 120 h) [nM] | Emax (MV-3 cells; Homo sapiens, MV-3, 120 h, read-out: MSCP TCB killing MV-3 cells 5 d Emax) [%] | EC50 (MV-3 cells; read-out: MSCP TCB killing MV-3 cells 5 d EC50; primary human T-cells + MCSP-TCB, MV-3 RFP cells, 5 d) [nM] | Emax proliferation (% activation) (primary human T-cells [1]; 5 days, normalized to reference compound A1 as stimulator control = 100%, DMSO neutral control)
67.1 | CC(C)(C)c1nnc(-c2cc3c(cc2F)S(=O)(=O)C[C@H](N)C(=O)N3Cc2ccc(Cl)cc2)o1 [Example 63, (3R)-3-amino-7-(5-tert-butyl-1,3,4-oxadiazol-2-yl)-5-[(4-chlorophenyl)methyl]-8-fluoro-1,1-dioxo-2,3-dihydro-1λ^6,5-benzothiazepin-4-one] | 141 | 48.8 | 93 | 20 | – | – | – | – | – | – | –
3240 | CCc1nnc(-c2cc3c(cc2F)S(=O)(=O)C[C@H](N)C(=O)N3Cc2ccc(Cl)cc2)o1 [Example 72, (3R)-3-Amino-5-[(4-chlorophenyl)methyl]-7-(5-ethyl-1,3,4-oxadiazol-2-yl)-8-fluoro-1,1-dioxo-2,3-dihydro-1λ^6,5-benzothiazepin-4-one] | 124 | 1140 | 115 | – | 310 | – | – | – | – | – | –
55.2 | N[C@H]1CS(=O)(=O)c2cc(F)c(-c3nnc(C4CCCCC4(F)F)o3)cc2N(Cc2ccc(Cl)cc2)C1=O (stereo partly drawn) [Example 74, (3R)-3-Amino-5-[(4-chlorophenyl)methyl]-7-[5-(2,2-difluorocyclohexyl)-1,3,4-oxadiazol-2-yl]-8-fluoro-1,1-dioxo-2,3-dihydro-1λ^6,5-benzothiazepin-4-one] | 180 | 48.7 | 97 | – | 20 | – | – | – | – | – | –
34.1 | N[C@H]1CS(=O)(=O)c2cc(F)c(-c3nnc(C4CCCC(F)(F)C4)o3)cc2N(Cc2ccc(Cl)cc2)C1=O (stereo partly drawn) [Example 91, (3R)-3-amino-5-[(4-chlorophenyl)methyl]-7-[5-(3,3-difluorocyclohexyl)-1,3,4-oxadiazol-2-yl]-8-fluoro-1,1-dioxo-2,3-dihydro-1λ^6,5-benzothiazepin-4-one] | 139 | 125 | 93 | – | 20 | – | – | – | – | – | –
238 | NC(c1nnc(-c2cc3c(cc2F)S(=O)(=O)C[C@H](N)C(=O)N3Cc2ccc(Cl)cc2)o1)C(F)(F)F (stereo partly drawn) [Example 122, (3R)-3-amino-7-[5-(1-amino-2,2,2-trifluoro-ethyl)-1,3,4-oxadiazol-2-yl]-5-[(4-chlorophenyl)methyl]-8-fluoro-1,1-dioxo-2,3-dihydro-1λ^6,5-benzothiazepin-4-one] | 92 | 782 | 86 | – | 510 | – | – | – | – | – | –
75.7 | COC(=O)N1CCC(C)(c2nnc(-c3cc4c(cc3F)S(=O)(=O)C[C@H](N)C(=O)N4Cc3ccc(Cl)cc3)o2)CC1 [Example 171, methyl 4-methyl-4-[5-[(3R)-3-amino-5-[(4-chlorophenyl)methyl]-8-fluoro-1,1,4-trioxo-2,3-dihydro-1λ^6,5-benzothiazepin-7-yl]-1,3,4-oxadiazol-2-yl]piperidine-1-carboxylate] | 93 | 55.5 | 100 | – | 40 | – | – | – | – | – | –
158 | CC(C)(C)c1nnc(-c2cc3c(cc2F)[S+]([O-])C[C@H](N)C(=O)N3Cc2ccc(Cl)cc2)o1 (stereo partly drawn) [Example 186, (3R)-3-amino-7-(5-tert-butyl-1,3,4-oxadiazol-2-yl)-5-[(4-chlorophenyl)methyl]-8-fluoro-1-oxo-2,3-dihydro-1λ^4,5-benzothiazepin-4-one] | 94 | – | – | – | 130 | 710 | 100 | – | – | – | –
37 | CC(C)(C)c1nnc(-c2cc3c(cc2F)S(=O)(=O)C[C@H](N)C(=O)N3Cc2ccc(OC(F)(F)C(F)F)cc2)o1 [Example 232, (3R)-3-amino-7-(5-tert-butyl-1,3,4-oxadiazol-2-yl)-8-fluoro-1,1-dioxo-5-[[4-(1,1,2,2-tetrafluoroethoxy)phenyl]methyl]-2,3-dihydro-1λ^6,5-benzothiazepin-4-one] | 127 | 57.6 | 83 | – | 30 | – | – | – | – | – | –
526 | CC(C)(C)c1nnc(-c2cc3c(cc2F)S(=O)(=O)C[C@H](N)C(=O)N3Cc2ccc(Cl)nc2)o1 [Example 237, (3R)-3-amino-7-(5-tert-butyl-1,3,4-oxadiazol-2-yl)-5-[(6-chloro-3-pyridyl)methyl]-8-fluoro-1,1-dioxo-2,3-dihydro-1λ^6,5-benzothiazepin-4-one] | 106 | 1300 | 84 | – | 450 | – | – | – | – | – | –
> 10000 | CC(C)Oc1ccc(CN2C(=O)[C@@H](N)CS(=O)(=O)c3cc(F)c(-c4nnc(C(C)(C)C)o4)cc32)cn1 [Example 249, (3R)-3-amino-7-(5-tert-butyl-1,3,4-oxadiazol-2-yl)-8-fluoro-5-[(6-isopropoxy-3-pyridyl)methyl]-1,1-dioxo-2,3-dihydro-1λ^6,5-benzothiazepin-4-one] | 161 | 1240 | 100 | – | 210 | – | – | – | – | – | –
59.5 | CC(C)Oc1ccc(CN2C(=O)[C@@H](N)CS(=O)(=O)c3cc(F)c(-c4nnc(C(C)(C)C)o4)cc32)cc1 [Example 254, (3R)-3-amino-7-(5-tert-butyl-1,3,4-oxadiazol-2-yl)-8-fluoro-5-[(4-isopropoxyphenyl)methyl]-1,1-dioxo-2,3-dihydro-1λ^6,5-benzothiazepin-4-one] | 95 | < 15.1 | 104 | – | 10 | – | – | – | – | – | –
< 162 | C[C@H](N)C(=O)N[C@H]1CS(=O)(=O)c2cc(F)c(-c3nnc(C(C)(C)C)o3)cc2N(Cc2ccc(Cl)cc2)C1=O [Example 262] | 101 | < 162 | 92 | – | 30 | – | – | – | – | – | –
57.4 | CC[C@H](NC)C(=O)N[C@H]1CS(=O)(=O)c2cc(F)c(-c3nnc(C(C)(C)C)o3)cc2N(Cc2ccc(Cl)cc2)C1=O [Example 270, (2S)-2-(methylamino)-N-[(3R)-7-(5-tert-butyl-1,3,4-oxadiazol-2-yl)-5-[(4-chlorophenyl)methyl]-8-fluoro-1,1,4-trioxo-2,3-dihydro-1λ^6,5-benzothiazepin-3-yl]butanamide] | – | – | 81 | – | 20 | 39.7 | – | – | – | – | 111
1700 | Cc1cc2c(cc1-c1nnc(C(C)(C)C)o1)N(Cc1ccc(Cl)cc1)C(=O)[C@@H](N)CS2(=O)=O [Example 272, (3R)-3-amino-7-(5-tert-butyl-1,3,4-oxadiazol-2-yl)-5-[(4-chlorophenyl)methyl]-8-methyl-1,1-dioxo-2,3-dihydro-1λ^6,5-benzothiazepin-4-one] | 102 | 790 | 100 | – | 1090 | – | – | – | – | – | –
177 | CC(C)(C)n1cc(-c2cc3c(cc2F)S(=O)(=O)C[C@H](N)C(=O)N3Cc2ccc(Cl)cc2)cn1 [Example 278, (3R)-3-amino-7-(1-tert-butylpyrazol-4-yl)-5-[(4-chlorophenyl)methyl]-8-fluoro-1,1-dioxo-2,3-dihydro-1λ^6,5-benzothiazepin-4-one] | 102 | 1080 | 100 | – | 830 | – | – | – | – | – | –
3710 | CC(C)(C)c1cnn(-c2cc3c(cc2F)S(=O)(=O)C[C@H](N)C(=O)N3Cc2ccc(Cl)cc2)c1 [Example 282, (3R)-3-amino-7-(4-tert-butylpyrazol-1-yl)-5-[(4-chlorophenyl)methyl]-8-fluoro-1,1-dioxo-2,3-dihydro-1λ^6,5-benzothiazepin-4-one] | 96 | 5490 | 74 | – | 880 | – | – | – | – | – | –
> 20000 | CC(C)(C)n1cnc(-c2cc3c(cc2F)S(=O)(=O)C[C@H](N)C(=O)N3Cc2ccc(Cl)cc2)n1 [Example 286, (3R)-3-amino-7-(1-tert-butyl-1,2,4-triazol-3-yl)-5-[(4-chlorophenyl)methyl]-8-fluoro-1,1-dioxo-2,3-dihydro-1λ^6,5-benzothiazepin-4-one] | 93 | 338 | 100 | – | 80 | – | – | – | – | – | –
158 | CC(C)(C)c1nc(-c2cc3c(cc2F)S(=O)(=O)C[C@H](N)C(=O)N3Cc2ccc(Cl)cc2)no1 [Example 289, (3R)-3-amino-7-(5-tert-butyl-1,2,4-oxadiazol-3-yl)-5-[(4-chlorophenyl)methyl]-8-fluoro-1,1-dioxo-2,3-dihydro-1λ^6,5-benzothiazepin-4-one] | 124 | 187 | 97 | 120 | – | – | – | – | – | – | –

SMILES | EC50 (primary human T-cells [2]) [nM] | Emax (primary human T-cells [1]; [3]) [%] | EC50 (primary human T-cells [1]; Homo sapiens, T-cell, 120 h) [nM] | Emax (MV-3 cells; [4]) [%] | EC50 (MV-3 cells; [5]) [nM] | EC50 (MV-3 cells; [6]) [nM] | EC50 (primary human T-cells [1]) [nM] | MSCP TCB killing MV-3 cells 5 d Emax (MV-3 cells; normalized: MCSP-TCB only = neutral control, 20 μM reference compound A1 = 100%; 5 d) [%] | EC50 (primary human T-cells [1]; T-cell, 120 h) [nM] | Emax (MV-3 cells; Homo sapiens, MV-3, 120 h, read-out: MSCP TCB killing MV-3 cells 5 d Emax) [%] | EC50 (MV-3 cells; read-out: MSCP TCB killing MV-3 cells 5 d EC50; primary human T-cells + MCSP-TCB, MV-3 RFP cells, 5 d) [nM] | Emax proliferation (% activation) (primary human T-cells [1]; 5 days, normalized to reference compound A1 as stimulator control = 100%, DMSO neutral control)
CC(C)(C)c1nnc(-c2cc3c(cc2F)S(=O)(=O)C[C@H](N)C(=O)N3Cc2ccc(C#N)cc2)o1 [Example 220, 4-[[(3R)-3-amino-7-(5-tert-butyl-1,3,4-oxadiazol-2-yl)-8-fluoro-1,1,4-trioxo-2,3-dihydro-1λ^6,5-benzothiazepin-5-yl]methyl]benzonitrile] | 238 | 102 | – | – | – | – | – | – | 564 | 100 | 390 | –

— US20240368150A1 (Hoffmann-La Roche Inc., priority 2021, published 2024)
